Assay results from ChEMBL document CHEMBL5715943, “Design and synthesis of potent and selective azaindole-based Rho kinase (ROCK) inhibitors” (ChemMedChem, 2008).

Tests used:
Saphenous artery = assay: Vasorelaxant activity in isolated Chinchilla rabbit saphenous artery vessels assessed as inhibition of phenylephrine-mediated contraction; assay type: functional, tissue-based; conditions: Oryctolagus cuniculus
[1] = buffer
[2] = molecular target: Rho-associated protein kinase 2 (Homo sapiens, UniProt O75116); assay: Inhibition of His-tagged human ROCK2 expressed in Sf9 cells pre-incubated for 10 mins before S6 peptide substrate addition in presence of [33P]ATP and measured after 20 mins by scintillation counting
Rho-associated protein kinase 2, sequence (O75116 whole entry): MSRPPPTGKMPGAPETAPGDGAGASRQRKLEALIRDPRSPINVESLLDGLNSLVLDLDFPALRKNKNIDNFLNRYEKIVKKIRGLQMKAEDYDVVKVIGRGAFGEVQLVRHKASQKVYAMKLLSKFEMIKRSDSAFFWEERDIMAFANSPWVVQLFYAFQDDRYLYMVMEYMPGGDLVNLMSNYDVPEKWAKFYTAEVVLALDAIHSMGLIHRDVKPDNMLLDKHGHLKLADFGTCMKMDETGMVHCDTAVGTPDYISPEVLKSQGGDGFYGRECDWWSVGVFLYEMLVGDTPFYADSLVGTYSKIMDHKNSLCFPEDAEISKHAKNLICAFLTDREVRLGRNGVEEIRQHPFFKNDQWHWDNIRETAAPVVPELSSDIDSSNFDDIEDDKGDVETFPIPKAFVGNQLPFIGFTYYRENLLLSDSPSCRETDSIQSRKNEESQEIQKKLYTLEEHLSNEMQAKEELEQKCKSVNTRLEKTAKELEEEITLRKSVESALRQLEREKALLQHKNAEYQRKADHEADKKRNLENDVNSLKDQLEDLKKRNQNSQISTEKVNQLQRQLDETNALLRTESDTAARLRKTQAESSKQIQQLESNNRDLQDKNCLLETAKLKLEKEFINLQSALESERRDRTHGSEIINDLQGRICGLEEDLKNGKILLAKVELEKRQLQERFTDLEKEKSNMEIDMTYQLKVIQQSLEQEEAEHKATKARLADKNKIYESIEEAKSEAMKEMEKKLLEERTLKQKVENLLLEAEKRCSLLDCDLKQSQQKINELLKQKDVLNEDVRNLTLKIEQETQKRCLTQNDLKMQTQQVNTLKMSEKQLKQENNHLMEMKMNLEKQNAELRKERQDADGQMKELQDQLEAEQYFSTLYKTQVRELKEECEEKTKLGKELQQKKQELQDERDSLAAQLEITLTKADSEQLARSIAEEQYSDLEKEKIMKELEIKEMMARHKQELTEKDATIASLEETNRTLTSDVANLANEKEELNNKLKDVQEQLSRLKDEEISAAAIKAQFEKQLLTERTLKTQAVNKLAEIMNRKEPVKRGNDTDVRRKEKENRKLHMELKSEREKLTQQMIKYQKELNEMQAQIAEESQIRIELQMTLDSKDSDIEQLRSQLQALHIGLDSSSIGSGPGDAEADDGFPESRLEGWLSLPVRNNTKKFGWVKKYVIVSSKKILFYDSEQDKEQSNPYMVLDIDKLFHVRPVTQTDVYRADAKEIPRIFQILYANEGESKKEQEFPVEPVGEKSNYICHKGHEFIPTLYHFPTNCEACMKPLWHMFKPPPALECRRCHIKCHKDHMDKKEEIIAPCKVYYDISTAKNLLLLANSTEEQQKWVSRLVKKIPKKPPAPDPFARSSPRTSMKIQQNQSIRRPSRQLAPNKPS

in vivo [3] = conditions: Wistar, rat, iv, 0.5 mg/kg
in vivo [4] = conditions: Wistar, rat, iv, 0.5 mg/kg; remark: listed apart in the source
in vivo [5] = conditions: Wistar, rat, po, 1 mg/kg
Rattus norvegicus [6] = assay: Anti-hypertensive effect in anaesthetized Wistar rat assessed as blood-pressure-lowering effect at 3 mg/kg, iv relative to control; assay type: functional
[7] = molecular target: RAF proto-oncogene serine/threonine-protein kinase (Homo sapiens, UniProt P04049); assay: Inhibition of human c-RAF
RAF proto-oncogene serine/threonine-protein kinase, sequence (P04049 whole entry): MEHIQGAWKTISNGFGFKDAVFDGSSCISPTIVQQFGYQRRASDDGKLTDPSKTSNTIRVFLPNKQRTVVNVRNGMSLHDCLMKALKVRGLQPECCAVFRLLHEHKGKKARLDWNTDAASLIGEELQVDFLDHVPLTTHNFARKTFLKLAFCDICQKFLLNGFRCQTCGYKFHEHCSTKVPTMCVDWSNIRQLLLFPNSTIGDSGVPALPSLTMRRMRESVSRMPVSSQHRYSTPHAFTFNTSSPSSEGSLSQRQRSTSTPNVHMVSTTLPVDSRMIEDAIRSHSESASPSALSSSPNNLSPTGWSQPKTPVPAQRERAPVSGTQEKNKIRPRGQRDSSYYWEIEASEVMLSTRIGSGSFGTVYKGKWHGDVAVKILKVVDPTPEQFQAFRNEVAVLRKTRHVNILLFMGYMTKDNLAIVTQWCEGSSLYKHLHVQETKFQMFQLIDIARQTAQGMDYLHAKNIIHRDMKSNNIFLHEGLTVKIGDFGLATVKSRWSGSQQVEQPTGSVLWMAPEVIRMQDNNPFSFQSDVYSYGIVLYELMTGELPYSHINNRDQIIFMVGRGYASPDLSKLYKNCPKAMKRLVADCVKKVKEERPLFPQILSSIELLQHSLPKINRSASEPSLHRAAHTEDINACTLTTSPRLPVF

[8] = molecular target: T1, Tyrosine-protein kinase receptor UFO (Homo sapiens, UniProt P30530); assay: Inhibition of human AXL
T1 sequence (P30530 whole entry): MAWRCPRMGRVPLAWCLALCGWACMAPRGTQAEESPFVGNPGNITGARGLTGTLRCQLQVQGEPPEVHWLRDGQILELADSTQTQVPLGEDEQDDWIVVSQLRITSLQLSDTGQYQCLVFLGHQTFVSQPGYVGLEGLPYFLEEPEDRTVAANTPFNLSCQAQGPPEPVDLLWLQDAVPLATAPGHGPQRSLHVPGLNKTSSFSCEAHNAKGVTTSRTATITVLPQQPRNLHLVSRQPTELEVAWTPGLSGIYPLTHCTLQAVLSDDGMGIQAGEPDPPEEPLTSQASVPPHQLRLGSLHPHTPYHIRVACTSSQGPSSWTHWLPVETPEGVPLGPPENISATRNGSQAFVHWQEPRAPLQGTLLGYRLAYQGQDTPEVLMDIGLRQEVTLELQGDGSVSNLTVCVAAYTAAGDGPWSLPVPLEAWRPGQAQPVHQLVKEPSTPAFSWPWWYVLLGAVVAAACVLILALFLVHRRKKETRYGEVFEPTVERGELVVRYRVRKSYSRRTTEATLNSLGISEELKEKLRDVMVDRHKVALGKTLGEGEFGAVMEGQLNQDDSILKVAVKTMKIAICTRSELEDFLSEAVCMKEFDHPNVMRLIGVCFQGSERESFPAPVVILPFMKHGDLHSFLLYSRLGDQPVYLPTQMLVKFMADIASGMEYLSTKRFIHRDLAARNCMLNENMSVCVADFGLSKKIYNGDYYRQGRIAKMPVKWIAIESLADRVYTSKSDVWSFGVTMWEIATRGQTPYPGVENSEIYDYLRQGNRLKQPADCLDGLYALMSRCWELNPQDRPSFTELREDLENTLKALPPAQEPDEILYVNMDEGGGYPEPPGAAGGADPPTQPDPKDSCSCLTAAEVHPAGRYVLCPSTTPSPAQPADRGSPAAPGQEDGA

[9] = molecular target: Voltage-gated inwardly rectifying potassium channel KCNH2 (Homo sapiens, UniProt Q12809); assay: Inhibition of human ERG channel assessed as reduction in K+ current by whole-cell voltage-clamp assay; assay type: toxicity
Voltage-gated inwardly rectifying potassium channel KCNH2, sequence (Q12809 whole entry): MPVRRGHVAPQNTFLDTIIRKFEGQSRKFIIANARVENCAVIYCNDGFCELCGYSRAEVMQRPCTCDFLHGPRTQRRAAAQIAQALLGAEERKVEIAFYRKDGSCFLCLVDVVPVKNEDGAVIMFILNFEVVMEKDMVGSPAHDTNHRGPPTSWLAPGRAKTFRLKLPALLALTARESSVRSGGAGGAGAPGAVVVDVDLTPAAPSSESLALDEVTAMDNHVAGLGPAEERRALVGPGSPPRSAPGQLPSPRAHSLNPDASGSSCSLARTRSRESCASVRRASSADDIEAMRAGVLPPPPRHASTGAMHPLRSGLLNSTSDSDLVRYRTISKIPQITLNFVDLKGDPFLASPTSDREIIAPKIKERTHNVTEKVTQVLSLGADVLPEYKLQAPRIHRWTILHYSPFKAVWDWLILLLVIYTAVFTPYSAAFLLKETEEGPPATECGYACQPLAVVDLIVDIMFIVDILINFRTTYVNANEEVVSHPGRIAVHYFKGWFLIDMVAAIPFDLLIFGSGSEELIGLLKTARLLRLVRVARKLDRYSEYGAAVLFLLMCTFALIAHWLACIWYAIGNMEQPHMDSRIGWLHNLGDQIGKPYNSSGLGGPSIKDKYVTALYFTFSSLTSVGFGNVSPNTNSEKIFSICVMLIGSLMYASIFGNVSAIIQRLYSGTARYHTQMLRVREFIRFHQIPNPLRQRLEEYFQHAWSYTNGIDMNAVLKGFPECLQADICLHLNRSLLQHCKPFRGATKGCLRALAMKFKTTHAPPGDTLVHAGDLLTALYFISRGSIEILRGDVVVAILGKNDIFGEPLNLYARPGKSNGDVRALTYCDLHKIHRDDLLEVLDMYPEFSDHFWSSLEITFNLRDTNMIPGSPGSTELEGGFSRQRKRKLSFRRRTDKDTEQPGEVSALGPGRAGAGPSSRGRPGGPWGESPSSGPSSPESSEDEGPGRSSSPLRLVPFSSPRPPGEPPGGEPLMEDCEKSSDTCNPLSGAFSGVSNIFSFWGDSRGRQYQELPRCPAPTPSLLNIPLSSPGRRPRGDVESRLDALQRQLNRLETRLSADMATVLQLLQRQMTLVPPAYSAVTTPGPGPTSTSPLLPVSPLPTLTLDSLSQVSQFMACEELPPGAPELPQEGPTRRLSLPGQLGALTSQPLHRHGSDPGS

[10] = Inhibition of sodium channel (unknown origin); set-up: species or system Homo sapiens
[11] = molecular target: Myosin light chain kinase, smooth muscle (Homo sapiens, UniProt Q15746); assay: Inhibition of MYLK (unknown origin)
Myosin light chain kinase, smooth muscle, sequence (Q15746 whole entry): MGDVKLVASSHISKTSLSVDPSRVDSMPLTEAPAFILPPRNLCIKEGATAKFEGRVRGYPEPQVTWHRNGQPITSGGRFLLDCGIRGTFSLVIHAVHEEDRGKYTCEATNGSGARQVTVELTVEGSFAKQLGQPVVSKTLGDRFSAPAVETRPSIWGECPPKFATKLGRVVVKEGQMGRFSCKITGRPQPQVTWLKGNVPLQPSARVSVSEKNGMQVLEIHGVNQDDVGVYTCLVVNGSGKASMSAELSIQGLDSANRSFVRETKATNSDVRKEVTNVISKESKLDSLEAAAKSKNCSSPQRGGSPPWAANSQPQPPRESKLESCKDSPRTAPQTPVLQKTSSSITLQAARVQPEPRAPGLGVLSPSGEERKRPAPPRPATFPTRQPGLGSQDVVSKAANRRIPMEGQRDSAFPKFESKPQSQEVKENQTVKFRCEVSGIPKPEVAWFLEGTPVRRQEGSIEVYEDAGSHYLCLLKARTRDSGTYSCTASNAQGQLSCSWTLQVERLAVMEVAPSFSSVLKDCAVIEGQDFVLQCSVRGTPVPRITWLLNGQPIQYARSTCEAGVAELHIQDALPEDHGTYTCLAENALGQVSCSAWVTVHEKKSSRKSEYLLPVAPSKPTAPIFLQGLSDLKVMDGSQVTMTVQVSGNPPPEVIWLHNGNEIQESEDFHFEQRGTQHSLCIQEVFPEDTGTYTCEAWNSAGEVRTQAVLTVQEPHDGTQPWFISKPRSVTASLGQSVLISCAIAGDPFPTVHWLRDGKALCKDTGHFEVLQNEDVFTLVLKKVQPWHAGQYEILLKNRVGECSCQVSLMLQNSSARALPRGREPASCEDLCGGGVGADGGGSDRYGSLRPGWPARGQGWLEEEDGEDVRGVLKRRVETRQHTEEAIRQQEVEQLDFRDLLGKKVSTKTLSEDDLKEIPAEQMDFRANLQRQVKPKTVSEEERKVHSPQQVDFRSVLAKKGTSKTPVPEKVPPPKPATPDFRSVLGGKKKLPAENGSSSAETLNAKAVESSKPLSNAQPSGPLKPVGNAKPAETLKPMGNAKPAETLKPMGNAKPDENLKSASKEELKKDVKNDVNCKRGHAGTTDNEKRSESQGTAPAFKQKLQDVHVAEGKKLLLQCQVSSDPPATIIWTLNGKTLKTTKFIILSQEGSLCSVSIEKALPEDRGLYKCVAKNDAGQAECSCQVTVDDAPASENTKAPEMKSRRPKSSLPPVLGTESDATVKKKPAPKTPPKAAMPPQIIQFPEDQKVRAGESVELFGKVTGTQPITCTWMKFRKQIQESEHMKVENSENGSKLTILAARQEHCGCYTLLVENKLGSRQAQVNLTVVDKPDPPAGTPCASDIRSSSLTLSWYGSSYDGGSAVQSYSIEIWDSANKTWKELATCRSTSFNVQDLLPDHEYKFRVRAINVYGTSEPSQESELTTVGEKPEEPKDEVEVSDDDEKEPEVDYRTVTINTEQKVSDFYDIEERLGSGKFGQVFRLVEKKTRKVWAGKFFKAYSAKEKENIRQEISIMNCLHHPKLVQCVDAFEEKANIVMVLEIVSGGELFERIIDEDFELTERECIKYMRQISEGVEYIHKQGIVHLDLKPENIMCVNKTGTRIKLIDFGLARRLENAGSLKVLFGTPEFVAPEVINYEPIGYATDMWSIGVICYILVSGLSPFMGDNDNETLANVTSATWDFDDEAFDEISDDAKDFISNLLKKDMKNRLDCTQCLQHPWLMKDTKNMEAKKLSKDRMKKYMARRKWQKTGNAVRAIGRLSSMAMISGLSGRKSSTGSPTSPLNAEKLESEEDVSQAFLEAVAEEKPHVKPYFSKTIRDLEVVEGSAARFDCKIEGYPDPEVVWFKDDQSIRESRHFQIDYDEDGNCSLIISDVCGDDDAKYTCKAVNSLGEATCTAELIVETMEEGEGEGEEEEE

Rattus norvegicus [12] = assay: Anti-hypertensive effect in anaesthetized Wistar rat assessed as blood-pressure-lowering effect at 0.3 mg/kg, iv relative to control; assay type: functional
[13] = molecular target: Voltage-gated L-type calcium channel (Homo sapiens, UniProt Q13936+Q13698+Q01668+O60840); assay: Inhibition of L-type calcium channel (unknown origin); assay type: protein assay

Which IC50 (Saphenous artery) does the source give for `Nc1nc(Nc2ccc(Oc3ccnc4[nH]ccc34)c(F)c2)cc(C2CCCNC2)n1` (centres undefined) here?
Its IC50 is 0.23 µM.

For `N#Cc1c[nH]c2nccc(Oc3c(F)cc(Nc4ccnc(N)n4)cc3F)c12`, which solubility [1] is on record?
The solubility was “Insoluble”.

And the IC50 [2]?
The IC50 was 0.0009 µM.

What about the IC50 (Saphenous artery) of the same molecule?
The IC50 was 0.02 µM.

Which IC50 [2] does the source give for `Nc1nc(Nc2ccc(Oc3ccnc4[nH]ccc34)c(F)c2)cc(-c2cccnc2)n1` here?
The IC50 was 0.01 µM.

What about the IC50 (Saphenous artery) of the same molecule?
The IC50 was 0.37 µM.

Which IC50 [2] does the source give for `Nc1nc(Nc2ccc(Oc3cccc4cnccc34)c(F)c2)cc(-c2ccncc2)n1` here?
The IC50 was 0.2 µM.

Which IC50 [2] does the source give for `Cc1c[nH]c2nccc(Oc3ccc(Nc4ccnc(N)n4)cc3F)c12` here?
Its IC50 is 0.004 µM.

And the IC50 (Saphenous artery)?
Its IC50 is 0.084 µM.

What about the half-life (in vivo [3]) of the same molecule?
The half-life was 30 min.

What about the clearance (in vivo [4]) of the same molecule?
The clearance was 35 mL/min/kg.

For `Nc1nc(Nc2ccc(Oc3ccnc4[nH]ccc34)c(F)c2)cc(N2CCNCC2)n1`, which IC50 [2] is on record?
The IC50 was 0.006 µM.

What about the IC50 (Saphenous artery) of the same molecule?
Its IC50 is 0.41 µM.

With `Nc1nc(Nc2ccc(Oc3ccnc4[nH]ccc34)c(F)c2)cc(C2CCNCC2)n1` as the molecule, how does the IC50 [2] read?
The IC50 was 0.002 µM.

What about the IC50 (Saphenous artery) of the same molecule?
The IC50 was 0.57 µM.

With `Cc1cc(Nc2ccc(Sc3ccncc3)cc2)nc(N)n1` as the molecule, how does the IC50 [2] read?
The IC50 was 0.8 µM.

What does the source list for `Nc1nc(Nc2ccc(Oc3ccnc4[nH]ccc34)c(F)c2)cc(-c2ccncc2)n1`?
bioavailability (in vivo [5]): 18%; IC50 (Saphenous artery): 0.27 µM; Activity (Rattus norvegicus [6]): 65 mmHg; half-life (in vivo [3]): 18 min; clearance (in vivo [4]): 88.3 mL/min/kg

Which IC50 [2] does the source give for `Cc1c[nH]c2nccc(Oc3c(F)cc(Nc4ccnc(N)n4)cc3F)c12` here?
Its IC50 is 0.002 µM.

What about the IC50 (Saphenous artery) of the same molecule?
The IC50 was 0.056 µM.

What about the half-life (in vivo [3]) of the same molecule?
The half-life was 54 min.

And the clearance (in vivo [4])?
Its clearance is 26.7 mL/min/kg.

What does the source list for `Nc1nccc(Nc2ccc(Oc3ccnc4[nH]ccc34)c(F)c2)n1`?
IC50 [2]: 0.017 µM; IC50 (Saphenous artery): 1.5 µM

Which IC50 [2] does the source give for `Nc1nc(Nc2ccc(Oc3ccnc4[nH]ccc34)c(F)c2)cc(C(F)(F)F)n1` here?
The IC50 was 0.007 µM.

What about the IC50 (Saphenous artery) of the same molecule?
Its IC50 is 0.71 µM.

Which IC50 (Saphenous artery) does the source give for `Cc1n[nH]c2cccc(Oc3ccc(Nc4cc(-c5ccncc5)nc(N)n4)cc3F)c12` here?
Its IC50 is 6.8 µM.

For `Nc1nc(Nc2ccc(Sc3ccncc3)c(F)c2)cc(-c2ccncc2)n1`, which IC50 [2] is on record?
The IC50 was 0.011 µM.

What about the IC50 (Saphenous artery) of the same molecule?
Its IC50 is 0.5 µM.

Which IC50 [2] does the source give for `Nc1nc(Nc2ccc(Oc3cccc4[nH]ccc34)c(F)c2)cc(-c2ccncc2)n1` here?
Its IC50 is > 3 µM.

Which IC50 [2] does the source give for `Cc1c[nH]c2nccc(Oc3ccc(Nc4cc(-c5ccncc5)nc(N)n4)cc3F)c12` here?
The IC50 was 0.003 µM.

What about the IC50 (Saphenous artery) of the same molecule?
The IC50 was 0.089 µM.

What about the Activity (Rattus norvegicus [6]) of the same molecule?
The Activity was 70 mmHg.

For `CCc1c[nH]c2nccc(Oc3ccc(Nc4cc(-c5ccncc5)nc(N)n4)cc3F)c12`, which IC50 [2] is on record?
The IC50 was 0.008 µM.

What about the IC50 (Saphenous artery) of the same molecule?
Its IC50 is 1.2 µM.

With `Nc1nc(Nc2ccc(Oc3ccnc4[nH]ccc34)c(F)c2)cc(N2CCCC2)n1` as the molecule, how does the IC50 [2] read?
The IC50 was 0.016 µM.

What about the IC50 (Saphenous artery) of the same molecule?
Its IC50 is 0.94 µM.

With `Cc1cc(Nc2ccc(Sc3ccncc3)c(F)c2)nc(N)n1` as the molecule, how does the IC50 [2] read?
Its IC50 is 0.09 µM.

For `Nc1nc(Nc2ccc(Oc3cccc4[nH]ncc34)c(F)c2)cc(-c2ccncc2)n1`, which IC50 [2] is on record?
Its IC50 is 0.38 µM.

Which results are given for `Nc1nc(Cl)cc(Nc2ccc(Oc3ccnc4[nH]ccc34)c(F)c2)n1`?
IC50 [2]: 0.009 µM; IC50 (Saphenous artery): 1.1 µM

Which IC50 [2] does the source give for `Cc1cc(Nc2ccc(Oc3ccnc4[nH]ccc34)c(F)c2)nc(N)n1` here?
The IC50 was 0.011 µM.

And the IC50 (Saphenous artery)?
The IC50 was 1.7 µM.

For `Nc1nc(Nc2ccc(Oc3ccnc4[nH]ncc34)c(F)c2)cc(-c2ccncc2)n1`, which IC50 [2] is on record?
The IC50 was > 3 µM.

Which IC50 [7] does the source give for `Cc1c[nH]c2nccc(Oc3c(F)cc(Nc4cc(Cl)nc(N)n4)cc3F)c12` [BAY-549] here?
The IC50 was 1 µM.

What about the IC50 [8] of the same molecule?
Its IC50 is 1 µM.

What about the “inhibition (INH)” value [9] of the same molecule?
Its value is “Not Active”.

What about the bioavailability (in vivo [5]) of the same molecule?
The bioavailability was 48%.

What about the IC50 [10] of the same molecule?
The IC50 was 6.8 µM.

What about the IC50 (Saphenous artery) of the same molecule?
The IC50 was 0.065 µM.

What about the IC50 [11] of the same molecule?
Its IC50 is 7.4 µM.

What about the Activity (Rattus norvegicus [12]) of the same molecule?
Its Activity is 35 mmHg.

What about the half-life (in vivo [3]) of the same molecule?
Its half-life is 72 min.

What about the clearance (in vivo [4]) of the same molecule?
The clearance was 28.3 mL/min/kg.

What about the IC50 [13] of the same molecule?
Its IC50 is 6.7 µM.

For `Cc1c[nH]c2nccc(Oc3ccc(Nc4cc(Cl)nc(N)n4)cc3F)c12`, which IC50 (Saphenous artery) is on record?
Its IC50 is 0.1 µM.

For `Nc1nc(Nc2ccc(Oc3ccnc4[nH]ccc34)c(F)c2)cc(-c2ccccn2)n1`, which IC50 [2] is on record?
The IC50 was 0.007 µM.

And the IC50 (Saphenous artery)?
Its IC50 is 0.46 µM.

With `Nc1nc(Nc2cc(F)c(Oc3ccnc4[nH]cc(Cl)c34)c(F)c2)cc(C(F)(F)F)n1` as the molecule, how does the solubility [1] read?
Its solubility is “Insoluble”.

And the IC50 [2]?
Its IC50 is 0.002 µM.

And the IC50 (Saphenous artery)?
The IC50 was 0.082 µM.
